Active and inactive are the calls of the source.

The target of experiment [1] is T1, SUMO-activating enzyme (Homo sapiens, UniProt Q9UBT2). Description: SUMOylation inhibitor hit validation, confirmation, SUMOylation inhibitor project, biochemical, AlphaScreen (AID 2018). In kind it is functional.
Experiment [2] has as its system Streptococcus. Kind of experiment: Group A Streptococcus viability loss, dose response, counter-screen for streptokinase expression inhibitor project, luminescence, BacTiterGlo (AID 1915).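 Also: potency for reduction of bacterial viability or growth.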 In kind it is functional, organism-based. On the technique in general: A counterscreen serves to expose hits that act by an unwanted route or on another target.
Experiment [3] concerns the target T2, Long-chain-fatty-acid--AMP ligase FadD28 (Mycobacterium tuberculosis, UniProt P9WQ59).
T2 sequence (P9WQ59 whole entry): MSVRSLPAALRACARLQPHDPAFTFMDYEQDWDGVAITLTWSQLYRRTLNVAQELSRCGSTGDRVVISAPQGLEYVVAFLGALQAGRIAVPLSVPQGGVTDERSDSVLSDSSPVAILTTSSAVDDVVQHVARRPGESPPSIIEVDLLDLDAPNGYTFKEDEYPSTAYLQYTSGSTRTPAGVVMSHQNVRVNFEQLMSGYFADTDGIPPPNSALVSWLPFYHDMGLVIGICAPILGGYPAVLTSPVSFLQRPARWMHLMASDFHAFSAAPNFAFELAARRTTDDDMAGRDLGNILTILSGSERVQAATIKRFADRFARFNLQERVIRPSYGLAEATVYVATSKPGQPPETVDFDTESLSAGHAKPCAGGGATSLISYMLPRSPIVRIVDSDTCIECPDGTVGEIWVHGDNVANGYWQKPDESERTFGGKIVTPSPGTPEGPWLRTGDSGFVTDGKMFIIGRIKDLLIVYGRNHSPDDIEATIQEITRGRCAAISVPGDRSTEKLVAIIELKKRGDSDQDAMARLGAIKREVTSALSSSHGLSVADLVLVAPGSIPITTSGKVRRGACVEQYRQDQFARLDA
Description: Fluorescence polarization aasay to screen for inhibitors that compete for the binding of FadD28 to a bisubstrate Measured in Biochemical System Using Plate Reader - 2147-01_Inhibitor_Dose_CherryPick_Activity. In kind it is functional, Mycobacterium tuberculosis H37Rv. For orientation: In fluorescence polarisation assays a small probe gives low polarisation when free and higher when bound to something large.

Experiment [4] concerns the target T1, SUMO-activating enzyme. Kind of experiment: inhibitors of in vitro SUMOylation cascade, primary screen, biochemical, HTRF, uHTS (AID 2006). In kind it is protein-complex assay. In general terms: Time-resolved FRET reads energy transfer from a long-lived donor to a nearby acceptor.
The target of experiment [5] is T3, X-box-binding protein 1 (Homo sapiens, UniProt P17861).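 Also: confirmatory dose-response counter-screen serving a CHOP assay.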
T3 sequence (P17861 whole entry): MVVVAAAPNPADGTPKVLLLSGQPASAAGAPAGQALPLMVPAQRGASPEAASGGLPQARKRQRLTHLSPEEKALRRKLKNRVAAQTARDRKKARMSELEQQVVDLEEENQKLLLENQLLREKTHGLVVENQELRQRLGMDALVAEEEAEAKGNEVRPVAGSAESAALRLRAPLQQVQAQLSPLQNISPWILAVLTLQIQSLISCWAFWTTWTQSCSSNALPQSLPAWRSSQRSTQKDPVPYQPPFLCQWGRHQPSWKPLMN
In kind it is functional, Cricetulus griseus.

The test system of experiment [6] is Streptococcus sp. 'group A'. Kind of experiment: growth inhibition of control SK(-) GAS strain, dose response, counter-screen for streptokinase expression inhibitor project, luminescence, kanamycin, BacTiterGlo, confirmation (AID 1900). In kind it is functional, organism-based.
Experiment [7] deals with T4, Replicative DNA helicase DnaB (Mycobacterium tuberculosis, UniProt P9WMR3).
T4 sequence (P9WMR3 whole entry): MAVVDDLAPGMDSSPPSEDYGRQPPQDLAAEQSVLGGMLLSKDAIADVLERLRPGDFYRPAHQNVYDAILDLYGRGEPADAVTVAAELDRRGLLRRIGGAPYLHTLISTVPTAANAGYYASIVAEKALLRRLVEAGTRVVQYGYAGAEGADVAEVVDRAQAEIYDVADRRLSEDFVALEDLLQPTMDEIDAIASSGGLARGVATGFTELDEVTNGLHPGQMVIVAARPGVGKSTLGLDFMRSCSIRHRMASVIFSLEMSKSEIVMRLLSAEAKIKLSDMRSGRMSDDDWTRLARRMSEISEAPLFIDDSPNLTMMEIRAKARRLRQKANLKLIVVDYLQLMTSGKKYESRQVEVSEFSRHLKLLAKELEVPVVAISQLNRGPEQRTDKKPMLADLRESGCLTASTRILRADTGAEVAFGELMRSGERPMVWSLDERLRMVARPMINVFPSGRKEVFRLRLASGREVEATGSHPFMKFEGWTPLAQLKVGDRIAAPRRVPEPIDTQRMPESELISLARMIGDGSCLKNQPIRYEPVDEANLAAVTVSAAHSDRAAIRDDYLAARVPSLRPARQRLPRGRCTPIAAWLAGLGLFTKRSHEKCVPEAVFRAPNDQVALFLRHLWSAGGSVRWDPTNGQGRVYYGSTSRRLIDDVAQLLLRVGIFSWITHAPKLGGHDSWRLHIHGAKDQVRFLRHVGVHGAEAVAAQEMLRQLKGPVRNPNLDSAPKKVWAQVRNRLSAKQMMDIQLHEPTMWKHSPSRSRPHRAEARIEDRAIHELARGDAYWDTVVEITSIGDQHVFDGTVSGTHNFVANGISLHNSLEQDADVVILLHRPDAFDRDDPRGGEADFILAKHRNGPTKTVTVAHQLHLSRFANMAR
Kind of experiment: DnaB intein splicing inhibitors, dose response, biochemical, cell-free fluorescence (AID 449749). In kind it is functional.

Experiment [8] has as its target SUMO E1/E2 (Homo sapiens, UniProt P63279+Q9UBE0+Q9UBT2). Description: SAR analysis of SUMOylation using HTRF in an in-Vitro dose response assay. [Related pubchem assays (depositor defined):AID2006, AID2011, AID2018, AID2069, AID2658]. In kind it is functional.
Experiment [9] has as its target T5, Tyrosyl-DNA phosphodiesterase 2 (Homo sapiens, UniProt O95551).
T5 sequence (O95551 whole entry): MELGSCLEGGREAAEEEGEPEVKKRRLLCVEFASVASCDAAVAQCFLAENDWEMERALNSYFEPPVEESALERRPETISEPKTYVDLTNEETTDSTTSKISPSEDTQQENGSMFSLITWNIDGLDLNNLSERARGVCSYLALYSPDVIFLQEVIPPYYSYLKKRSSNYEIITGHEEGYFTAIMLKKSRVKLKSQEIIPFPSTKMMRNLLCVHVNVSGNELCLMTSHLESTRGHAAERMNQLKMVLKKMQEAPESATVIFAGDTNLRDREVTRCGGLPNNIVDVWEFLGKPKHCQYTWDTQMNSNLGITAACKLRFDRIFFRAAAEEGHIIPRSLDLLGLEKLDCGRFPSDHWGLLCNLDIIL
Description: human TDP2 enzyme inhibitors, dose response, biochemical, epi absorbance, IC50 (AID 743297).

Experiment [10] has as its system INS1. Description: beta cell apoptosis inhibitors, cytokine rescue, dose response, luminescence, retest (AID 449756).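 Also: cell death triggered by IL-1 beta plus TNF-alpha plus IFN-gamma mixture; protective hits raise ATP signal compared with cytokine alone wells.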 In kind it is functional, cell-based. The settings on record: Rattus norvegicus.

T1 sequence (Q9UBE0 whole entry): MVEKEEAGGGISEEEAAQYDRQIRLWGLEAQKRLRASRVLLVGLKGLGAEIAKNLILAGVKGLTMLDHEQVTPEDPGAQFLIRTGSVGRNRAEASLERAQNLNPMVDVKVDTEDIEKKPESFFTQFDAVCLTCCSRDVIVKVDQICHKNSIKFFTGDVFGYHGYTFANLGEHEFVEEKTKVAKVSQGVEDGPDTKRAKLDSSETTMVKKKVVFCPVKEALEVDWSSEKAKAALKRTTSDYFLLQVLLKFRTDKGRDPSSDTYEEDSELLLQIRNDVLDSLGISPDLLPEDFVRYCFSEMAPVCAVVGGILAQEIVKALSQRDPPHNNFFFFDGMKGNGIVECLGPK
T1 sequence (Q9UBT2 whole entry): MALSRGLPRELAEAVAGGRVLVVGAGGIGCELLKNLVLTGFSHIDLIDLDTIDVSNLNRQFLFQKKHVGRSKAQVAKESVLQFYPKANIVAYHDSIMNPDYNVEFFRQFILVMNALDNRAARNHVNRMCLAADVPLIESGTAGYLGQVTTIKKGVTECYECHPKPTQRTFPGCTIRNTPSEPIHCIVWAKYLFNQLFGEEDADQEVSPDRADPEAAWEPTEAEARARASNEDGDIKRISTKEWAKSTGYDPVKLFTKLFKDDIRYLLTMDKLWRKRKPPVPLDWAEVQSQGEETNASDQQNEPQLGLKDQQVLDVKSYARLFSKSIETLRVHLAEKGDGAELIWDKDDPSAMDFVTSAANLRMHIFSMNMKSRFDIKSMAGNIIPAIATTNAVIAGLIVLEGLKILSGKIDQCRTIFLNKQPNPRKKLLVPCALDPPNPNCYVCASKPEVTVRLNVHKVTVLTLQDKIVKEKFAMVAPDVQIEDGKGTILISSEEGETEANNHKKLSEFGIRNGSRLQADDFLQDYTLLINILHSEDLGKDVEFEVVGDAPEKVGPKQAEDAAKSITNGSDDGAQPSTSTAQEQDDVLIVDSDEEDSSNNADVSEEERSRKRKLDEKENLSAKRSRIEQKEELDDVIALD
Sequence of SUMO E1/E2 (Q9UBE0 whole entry): as the sequence (Q9UBE0 whole entry) above
Sequence of SUMO E1/E2 (Q9UBT2 whole entry): as the sequence (Q9UBT2 whole entry) above
Sequence of SUMO E1/E2 (P63279 whole entry): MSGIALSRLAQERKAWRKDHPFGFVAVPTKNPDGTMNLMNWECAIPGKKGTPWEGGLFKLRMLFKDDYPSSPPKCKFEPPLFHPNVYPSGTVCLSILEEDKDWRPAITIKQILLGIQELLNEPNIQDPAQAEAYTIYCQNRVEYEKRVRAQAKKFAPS

A word on the IC50: it is the midpoint of a concentration-inhibition curve. What is called EC50 is the concentration needed to bring the measured effect to its halfway point. What is called AC50 is the midpoint of the concentration-response curve, whichever way the signal moves. With `CCCCn1c(NS(=O)(=O)c2ccccc2)c(S(=O)(=O)c2ccc(C)cc2)c2nc3ccccc3nc21`, the IC50 was 0.68 µM (active) in [1], 1.83 µM (active) in experiment [4], 4.2 µM (active) in experiment [8] and 7.83 µM (active) in [9]. The EC50 was 14.1 µM (active) in experiment [2] and 3.56 µM (active) in experiment [6]. The AC50 in experiment [3] is 46.5 µM (active); in [7], > 380 µM (inactive); in experiment [10], 20.5 µM (active). Also, in experiment [5], the “Absolute IC50 (XBP1)” value was found to be 10 µM.

(Values after ChEMBL document CHEMBL1201862, “PubChem BioAssay data set” (2004).)
